Laboratory results reported in patent publication US9206194B2, “Halichondrin B analogs” (Eisai R&D Management Co., Ltd., priority 2008, dated 2015).

How the values were obtained:
[1] = system: MES-SA uterine sarcoma cells; assay: Cell growth inhibition assay (methylene blue-based microculture), MES-SA; parameters: species or system human; settings: MDR negative parental cell line, 4 days incubation, compound in the crystalline form described
Method: (§1) The anti-cancer activity of the compounds described above, in the crystalline forms described, was determined using cell growth inhibition assays as described in Liu, J. et al. Anticancer Research, 27:1509-1511 (2007). The activity data in terms of IC50 nM is described below in Table 9. MES-SA and MES-SA/Dx5-Rx1 uterine sarcoma, were obtained from the American Type Culture Collection and grown in the recommended conditions.
(§2) Cell Growth Inhibition Assays. Cells were seeded at 7.5×10^3 cells/well in 96-well plates in the recommended medium supplemented with 10% FBS and penicillin, streptomycin and L-glutamine. […] The cell growth was determined using modifications (see Finlay G. J., et al. “A semiautomated microculture method for investigating growth inhibitory effects of cytotoxic compounds on exponentially growing carcinoma cells.” Anal Biochem 139: 272-277, 1984) of a methylene blue-based microculture assay (See Towle M. J., et al. “In vitro and in vivo anticancer activities of synthetic macrocyclic ketone analogues of halichondrin B.” Cancer Res 61: 1013-1021, 2001). […] The plates were read at A600-A405.
(§3) Susceptibility of Compound to P-Glycoprotein-Mediated Multidrug Resistance (MDR). […] Both cell lines were seeded at 7.5×10^3 cells/well in McCoy's 5A supplemented with 10% FBS and penicillin, streptomycin and L-glutamine and cell growth was measured as above. […]

[2] = system: MES-SA/Dx5-Rx1 uterine sarcoma cells (expresses P-Glycoprotein at high levels); assay: Cell growth inhibition assay (methylene blue-based microculture), Dx5-Rx1; parameters: species or system human; settings: Dx5-Rx1, doxorubicin-selected P-glycoprotein expressing subline; 4 days incubation; compound in the crystalline form described
Method: as §1, §2, §3

[3] = system: P-Glycoprotein-mediated MDR, Dx5-Rx1 versus MES-SA cells; assay: Susceptibility of compound to P-glycoprotein-mediated multidrug resistance (fold resistance); assay type: cell-based, human; settings: fold resistance: ratio of the IC50 values in resistant and parental cell lines
Method: Susceptibility of Compound to P-Glycoprotein-Mediated Multidrug Resistance (MDR). A pair of human uterine sarcoma cell lines was used: MES-SA, the MDR negative parental cell line, and Dx5-Rx1, a cell line derived from MES-SA after long term of exposure to doxorubicin. This subline expresses P-Glycoprotein at high levels. Both cell lines were seeded at 7.5×10^3 cells/well in McCoy's 5A supplemented with 10% FBS and penicillin, streptomycin and L-glutamine and cell growth was measured as above. The ratio of the IC50 values obtained in the parental and resistant cell lines was termed fold resistance and provided an indication of compound susceptibility to P-glycoprotein-mediated MDR against the two cell lines were compared with each other.

In the case of `C=C1C[C@@H]2CC[C@@]34C[C@H]5O[C@H]6[C@@H](O3)[C@H]3O[C@H](CC[C@@H]3O[C@H]6[C@H]5O4)CC(=O)C[C@@H]3[C@@H](OC)[C@@H](C[C@H](O)CO)O[C@H]3C[C@H]3O[C@@H](CC[C@@H]1O2)C[C@@H](C)C3=C` [ER-076349 monohydrate], the IC50 [1] is reported as 0.03 nM, the IC50 [2] is reported as 6.5 nM and the “Ratio of DxR-Rx1/MES-SA” value [3] is reported as 217.
With `C=C1C[C@@H]2CC[C@@]34C[C@H]5O[C@H]6[C@@H](O3)[C@H]3O[C@H](CC[C@@H]3O[C@H]6[C@H]5O4)CC(=O)C[C@@H]3[C@@H](OC)[C@@H](C[C@H](O)CN)O[C@H]3C[C@H]3O[C@H](CC[C@@H]1O2)C[C@@H](C)C3=C` [ER-820057 (epi-C23 amine)] the IC50 [1] was 3.3 nM, the IC50 [2] was 1000 nM and the “Ratio of DxR-Rx1/MES-SA” value [3] was 303.
